Common to all, as to format: cell-based
Assay [1] concerns Candida parapsilosis USP 1933. Description: MIC/CFM by microdilution (CLSI M27-A2). More on the design: key to MIC: —: There was no growth inhibition.
In another assay the test system is Candida krusei USP 2223. Description: MIC by microdilution (CLSI M27-A2). Also on record: key: —: There was no growth inhibition.
In assay [2] the test system is Candida tropicalis USP 1658. Description: MIC by microdilution (CLSI M27-A2). More on the design: key: —: There was no growth inhibition. A general note: In broth dilution the organism is exposed to a series of concentrations in liquid medium.
Assay [3] relates to Candida tropicalis USP B3. Description: MIC by microdilution (CLSI M27-A2). Also on record: key: —: There was no growth inhibition. The note with it: Table 11, C. Tropicalis USP B3.
The test system of assay [4] is Candida guilhermondii USP. Description: MIC/CFM by microdilution (CLSI M27-A2). Also on record: key to MIC: —: There was no growth inhibition.
The test system of another assay is Candida krusei ATCC 6258. Description: MIC/CFM by microdilution (CLSI M27-A2). Also on record: key to MIC: —: There was no growth inhibition.
Assay [5] concerns Trichophyton rubrum ATCC MYA-3108. In words: MIC by microdilution, filamentous fungi (CLSI M38-A). The following applies: Table 11, Trichophyton rubrum ATCC MYA-3108.
In assay [6] the test system is Candida albicans USP 1565. Description: MIC by microdilution (CLSI M27-A2). Also on record: key: —: There was no growth inhibition.
Assay [7] has as its system Microsporum canis ATCC 32903. In words: MIC by microdilution, filamentous fungi (CLSI M38-A). The note with it: Table 13, Microsporum canis ATCC 32903, 7 days, 28° C. The protocol: (§1) Pure substances termed P1 and P2 previously dissolved in 20% DMSO, were diluted in RPMI medium, with final concentrations of 96 μg.mL-1. […] Cultures of filamentous fungi described below were inoculated in Agar-Batata Dextrose medium and inoculated for 7 days, at 28° C. Colonies of cultures inoculated for 7 days in an oven at 28° C. were shrouded with 0.85% saline solution, scraped and then transferred to conical tubes. After resting for 5 minutes, the supernatant was transferred to new conical tubes for subsequent quantification in spectrophotometer, at 530 nm, with the transmittance adjustment of 80-82% for A. niger and 70% for other microorganisms. After adjustment, there was a 1:50 dilution in RPM. The determination of Minimum Inhibitory Concentration was performed after 7 days, at 28° C. After the incubation period, aliquots of 96-well plates were transferred to Petri plates with Potato Dextrose Agar, to determine the Minimum Fungicidal Concentration. Plates were inoculated for more 7 days, at 28° C.

Assay [8] concerns Phomopsis longicolla (soy isolate). The assay is described as above. The note with it: Table 13, Phomopsis longicolla- soy, 7 days, 28° C. The protocol:
as §1

The test system of assay [9] is Trichophyton menthagrophyton ATCC 9533. Described as above. The following applies: Table 13, Trichophyton menthagrophyton ATCC 9533, 7 days, 28° C. How it is done:
as §1

Another assay concerns Candida albicans USP 1. Description: MIC/CFM by microdilution (CLSI M27-A2). The following applies: Table 12, C. albicans USP 1, 48 h, 35° C. How it is done:
(§2) Pure substances termed P1 and P2 previously dissolved in 20% DMSO, were diluted in RPMI medium, with final concentrations of 96 μg.mL-1. […] The same was also tested individually, diluted in RPMI medium, with initial concentration of 1 μL.mL-1. […] Cultures of Candida sp. were prepared and standardized in […] saline solution at 0.85%. For inoculums standardization, a spectrophotometer equipment was used, with wavelength at 530 nm and absorbance adjustment between 0.130 and 0.150, having as white the saline solution free of inoculum or any other contaminant, corresponding to concentrations of 10^6 CFU/mL. In this condition the inoculum “mother” was diluted 50 times and from this inoculum “child” the dilution was performed 20 times to obtain a standard inoculum in 10^3 cells per well. […] To aid in the growth view, were added to the wells dye 50 μL 2,3,5-triphenyltetrazolium chloride (TTC) at 5 mg.mL “1, being performed the readings after 4 hours of incubation. Prior to the addition of dye, aliquots of 96-well plate were transferred to Petri with Agar-Sabouraud Dextrose to determine the Minimum Fungicidal Concentration. Plates were incubated for 24 hours at 35° C.

For assay [10], the system named is Candida albicans OF-M7-19. Description: MIC/CFM by microdilution (CLSI M27-A2). The note with it: Table 12, C. albicans OF M7-19, 48 h, 35° C. How it is done: as §2
Assay [11] concerns Candida albicans OF-M3-20. In words: MIC/CFM by microdilution (CLSI M27-A2). The note with it: Table 12, C. albicans OF M3-20, 48 h, 35° C. The protocol:
as §2

The subject of assay [12] is Candida albicans ATCC 10231. In words: MIC/CFM by microdilution (CLSI M27-A2). The following applies: Table 12, C. albicans ATCC 10231, 48 h, 35° C.
Assay [13] concerns Candida parapsilosis ATCC 22019. In words: MIC/CFM by microdilution (CLSI M27-A2). The following applies: Table 12, C. parapsilosis ATCC 22019, 48 h, 35° C.
The mark [14] stands for this setting: Table 11, C. parapsilosis USP 1933.
Where [15] appears, read: Table 11, C. Tropicalis USP 1658.

Converted amounts (≈) assume the structure as drawn. Like-named read-outs stand apart in the source and are kept apart here. Where only a bound is given, the exact number is not on record here.

Turning to `OC(Cn1cncn1)(Cn1cncn1)c1ccc(F)cc1F` [Fluconazol], the minimal inhibitory concentration (MIC) was below 1 µg/mL in assay [1] (Lodderomyces parapsilosis, USP1933, Table 11, C. parapsilosis USP 1933, read-out: MIC); 64 µg/mL (≈ 209 µM) in the assay on Candida krusei USP 2223 (Pichia kudriavzevii, ATCC2223, Table 11, C. krusei ATCC 2223, read-out: MIC); below 1 µg/mL in [2] (Candida tropicalis, USP1658, Table 11, C. Tropicalis USP 1658, read-out: MIC); 1 µg/mL (≈ 3.27 µM) in assay [3] (Candida tropicalis, USPB3, read-out: MIC); below 1 µg/mL in assay [4] (Candida, Table 11, C. guilhermondii USP, read-out: MIC); 8 µg/mL (≈ 26.1 µM) with Candida krusei ATCC 6258 (Pichia kudriavzevii, ATCC6258, Table 11, C. krusei ATCC 6258, read-out: MIC). Further, the MIC was 16 µg/mL (≈ 52.2 µM) in assay [5] (read-out: MIC) and below 1 µg/mL in assay [6] (Candida albicans, USP1565, Table 11, C. Albicans USP 1565, read-out: MIC).
`CN(C/C=C/C#CC(C)(C)C)Cc1cccc2ccccc12` [Terbinafina ®, Terbinafina]: the MIC entry is listed as “—” in [1] (setting [14]); “—” in the assay on Candida krusei USP 2223 (Table 11, C. krusei ATCC 2223); “—” in assay [2] (setting [15]); “—” in [3]; “—” in assay [4] (Table 11, C. guilhermondii USP); “—” in the assay on Candida krusei ATCC 6258 (Table 11, C. krusei ATCC 6258). The minimum inhibitory concentration (MIC) in assay [5] (read-out: MIC) is 0.25 µg/mL (≈ 0.858 µM); in assay [6] (Table 11, C. Albicans USP 1565), “—”.
On to `C[C@@H]1[C@H](O)[C@@H](C)/C=C/C=C/C=C/C=C/C=C/C=C/C=C/[C@H](O[C@@H]2O[C@H](C)[C@@H](O)[C@H](N)[C@@H]2O)C[C@@H]2O[C@](O)(C[C@@H](O)C[C@@H](O)[C@H](O)CC[C@@H](O)C[C@@H](O)CC(=O)O[C@H]1C)C[C@H](O)[C@H]2C(=O)O` [AnfotericinaB, Anfotericina B], for which the MIC in assay [1] (setting [14]) is 2 µg/mL (≈ 2.16 µM); in assay [2] (setting [15]) it was 1 µg/mL (≈ 1.08 µM); in assay [3], 2 µg/mL (≈ 2.16 µM); in [4] (Table 11, C. guilhermondii USP) it was 2 µg/mL (≈ 2.16 µM); in the assay on Candida krusei ATCC 6258 (Table 11, C. krusei ATCC 6258) it was 1 µg/mL (≈ 1.08 µM); in assay [5], 1 µg/mL (≈ 1.08 µM). The minimal inhibitory concentration (MIC) in assay [6] (Table 11, C. Albicans USP 1565) came to 1 µg/mL (≈ 1.08 µM); in assay [7], 1.56 µg/mL (≈ 1.69 µM); in assay [8] it was 0.5 µg/mL (≈ 0.541 µM); in assay [9] it was 4 µg/mL (≈ 4.33 µM).
As to `CC(=O)N1CCN(c2ccc(OCC3COC(Cn4ccnc4)(c4ccc(Cl)cc4Cl)O3)cc2)CC1` (stereo not shown) [Cetoconazol], the MIC in assay [1] (Table 12, C. parapsilosis USP 1933, 48 h, 35° C.) was below 0.125 µg/mL; in the assay on Candida albicans USP 1, below 0.125 µg/mL; in [10], below 0.125 µg/mL; in assay [11], below 0.125 µg/mL; against Candida krusei USP 2223 (Table 12, C. krusei USP 2223, 48 h, 35° C.), 2 µg/mL (≈ 3.76 µM); in [2] (Table 12, C. tropicalis USP 1658, 48 h, 35° C.), “*<4 μg · mL^−1”. The MIC in [12] is 32 µg/mL (≈ 60.2 µM); in assay [4] (Table 12, C. guilhermondii USP, 48 h, 35° C.), 0.125 µg/mL (≈ 0.235 µM); in the assay on Candida krusei ATCC 6258 (Table 12, C. krusei ATCC 6258, 48 h, 35° C.), below 0.125 µg/mL; in assay [13], below 0.125 µg/mL; in assay [6] (Table 12, C. albicans USP 1565, 48 h, 35° C.), below 0.125 µg/mL; in [7], 4 µg/mL (≈ 7.53 µM). Moreover, the MIC is below 0.125 µg/mL in assay [8] and 2 µg/mL (≈ 3.76 µM) in assay [9].

What is called MIC is the least concentration at which growth counts as inhibited.

The values are drawn from patent US20150126465A1, “PROCESS FOR PRODUCING DERIVATIVES OF PYROSTEGIA VENUSTA, DERIVATIVES OF PYROSTEGIA VENUSTA, PHARMACEUTICAL COMPOSITIONS AND ITS USES” (priority 2011, published 2015).
